Patent US8946409B2, “Polycyclic β lactam derivatives for the treatment of cancer” (Board of Regents, The University of Texas System, priority 2011, dated 2015)
Where two headings read alike, the source gives them in different places.

Columns and labels:
BRO = assay: MTT assay, BRO cells; type: cell-based, human; conditions: melanoma, 72 hours, Table 1, read-out: IC50 in Cancer Cells Using the MTT Assay
Experimental: (§1) 8×10^3 cells/well were plated in a […]. Stock solutions of the agents were made in DMSO. Dilution of the compounds were in media with 10% FBS (fetal bovine serum). The cells were incubated in the drug for 72 hours and cell viability was determined by the MTT assay. IC50 was then calculated.

MDA-231 = assay: MTT assay, MDA-231 cells; type: cell-based, human; conditions: MDA-231, breast cancer, 72 hours, Table 1, read-out: IC50 in Cancer Cells Using the MTT Assay
Experimental: as §1

HT-29 = assay: MTT assay, HT-29 cells; type: cell-based, human; conditions: HT-29, colon carcinoma, 72 hours, Table 1, read-out: IC50 in Cancer Cells Using the MTT Assay
Experimental: as §1

PANC-1 = assay: MTT assay, PANC-1 cells; type: cell-based, human
Experimental: as §1

A-549 = assay: MTT assay, A-549 cells; type: cell-based, human; conditions: A-549, Non-Small Cell Carcinoma of the Lung, 72 hours, Table 1, read-out: IC50 in Cancer Cells Using the MTT Assay
Experimental: as §1

PC-3 = assay: MTT assay, PC-3 cells; type: cell-based, human; conditions: PC-3, carcinoma of the prostate, 72 hours, Table 1, read-out: IC50 in Cancer Cells Using the MTT Assay
Experimental: as §1

ASCP-1 = assay: MTT assay, ASCP-1 cells; type: cell-based; conditions: Homo sapiens, Table 2, read-out: IC50 against Human Pancreatic Cancer Lines Using the MTT Assay
Experimental: as §1

Pan02.03 = assay: MTT assay, Pan02.03 cells; type: cell-based; conditions: Homo sapiens, Table 2, read-out: IC50 against Human Pancreatic Cancer Lines Using the MTT Assay
Experimental: as §1

Miapaca-2 = assay: MTT assay, Miapaca-2 cells; type: cell-based, human; conditions: for IC50: Homo sapiens, MIA PaCa-2, Miapaca-2, Table 2, read-out: IC50 against Human Pancreatic Cancer Lines Using the MTT Assay
Experimental: as §1

SW-1990 = assay: MTT assay, SW-1990 cells; type: cell-based; conditions: Homo sapiens, SW1990, Table 2, read-out: IC50 against Human Pancreatic Cancer Lines Using the MTT Assay
Experimental: as §1

BXPC-3 = assay: MTT assay, BXPC-3 cells; type: cell-based; conditions: Homo sapiens, Table 2, read-out: IC50 against Human Pancreatic Cancer Lines Using the MTT Assay
Experimental: as §1

[1] = Body weight of tumor-bearing mice during treatment; type: in vivo, athymic nude mice; conditions: determined weekly through the treatment regimen
Experimental: (§2) The anti-tumorigenic activity of TX-262 was assessed in 4 week old male athymic nude mice by using a luciferase gene, stably-expressing, highly aggressive line of human pancreatic cells, MPanc96. 2×10^5/50 ul luciferase-labeled MPanc96 cells were injected directly into the mouse pancreas. […] Bioluminescent imagining was utilized to estimate tumor volume and location and mice were then divided into two groups such that the mean tumor size was equal between the groups. For the next five weeks mice in the control group were treated with DMSO only; while Group II mice were treated Monday through Friday as follows: 100 mg/K bw i.p. at zero time [AM] and a booster dose of 25 mg/K bw i.p. 90 minutes later. Each week body weight and mortality were recorded and tumor growth was monitored by bioluminescence imaging.

CoLo35FG = assay: MTT assay, CoLo35FG cells; type: cell-based; conditions: Homo sapiens, Table 2, read-out: IC50 against Human Pancreatic Cancer Lines Using the MTT Assay
Experimental: as §1

MPanc96 cells = assay: In vivo anti-tumorigenic activity, luciferase-labeled MPanc96 cells injected into mouse pancreas; set-up: species or system athymic nude mice
Experimental: as §2
Bioluminescence imaging utilized a cryogenically cooled image system coupled to a data acquisition computer running LivingImage Software [Xenogen Corp., Alameda Calif.]. Prior to imaging, the mice were anesthetized in an acrylic chamber using 1.5% isofluoroane/air mixture and injected i.p. with 40 mg/ml of luciferin potassium salt in PBS at a dose of 150 mg/K bw.
A digital grayscale animal image was acquired followed by acquisition and overlay of a pseudo color image representing the spacial distribution of detected photons emerging from active luciferase within the mouse. […]

[2] = PANC-1, pancreatic cancer, 72 hours, Table 1, read-out: IC50 in Cancer Cells Using the MTT Assay
[3] = Homo sapiens, PANC-1, PANC-1, Table 2 (average of runs), read-out: IC50 against Human Pancreatic Cancer Lines Using the MTT Assay

SMILES | IC50 (BRO) [nM] | IC50 (MDA-231) [nM] | IC50 (HT-29) [nM] | IC50 (PANC-1; [2]) [nM] | IC50 (A-549) [nM] | IC50 (PC-3) [nM] | IC50 (ASCP-1) [nM] | IC50 (Pan02.03) [nM] | IC50 (Miapaca-2) [nM] | IC50 (PANC-1; [3]) [nM] | IC50 (SW-1990) [nM] | IC50 (BXPC-3) [nM] | also measured
CN1CCN(C(=O)CCC(=O)Nc2cc3c4ccccc4ccc3c3ccccc23)CC1 [Compound 1b, 1-N-6′-Chrysenyl-4′-4-N-methylpiperazine-butane-1,4-dicarboxyamide] | 33600 | 12200 | 16700 | > 100000 | > 100000 | 27300 |  |  |  |  |  |  | 
N.N.[Cl][Pt][Cl] [Cisplatin, cisplatin] | 5700 | 10100 | 17000 | > 100000 | > 100000 | 2100 |  |  |  |  |  |  | 
Nc1ccn([C@@H]2O[C@H](CO)[C@@H](O)C2(F)F)c(=O)n1 [GEM, gemcitabine] |  |  |  |  |  |  | 100 | 150 | 25700 | > 300000 | 400 | 300 | IC50 against Human Pancreatic Cancer Lines Using the MTT Assay (PANC-1; PANC-1, Table 2 (average of runs)): inactive
CS(=O)(=O)O[C@H]1C(=O)N(c2cc3c4ccccc4ccc3c3ccccc23)C1c1ccccn1 (stereo partly drawn) [Compound 12, (3R)-1-(chrysen-6-yl)-2-oxo-4-(pyridin-2-yl)azetidin-3-yl methanesulfonate] |  |  |  |  |  |  | 1500 | 390 | 12000 | < 1000 | 1300 | 430 | Weights of mice, treated versus control [1]: No significant differences; IC50 (BRO; Homo sapiens): 640 nM; Effective concentration relative to the concentration required by GEM (Miapaca-2; GEM-resistant line Miapaca-2): approximately one-half; IC50 (MDA-231; Homo sapiens, MDA-MB-231): 430 nM; IC50 (HT-29; Homo sapiens): 360 nM; IC50 (PANC-1; Homo sapiens, PANC-1, 72 h, PANC-1, pancreatic cancer, 72 hours, Table 1, read-out: IC50 in Cancer Cells Using the MTT Assay): 430 nM; IC50 (PANC-1; PANC-1, Table 2 (average of runs), read-out: IC50 against Human Pancreatic Cancer Lines Using the MTT Assay): 750 nM; IC50 (CoLo35FG): 2700 nM; IC50 (A-549; Homo sapiens, A549): 960 nM; Viable tumor mass relative to that in control mice (MPanc96 cells; at 5 weeks, 100 mg/K bw i.p. plus 25 mg/K bw i.p. 90 minutes later, Monday through Friday, bioluminescence imaging): approximately 33%; Surviving (viable) mice (MPanc96 cells; at 6 weeks, control mice 20%): 80%; IC50 (PC-3; Homo sapiens): 510 nM
